Measurements reported in US9701680B2, “Pyrimidine and pyridine compounds and their usage” (HUTCHISON MEDIPHARMA LIMITED, priority 2013, dated 2017).
Read-outs that look alike come from different tables or passages of the source.

Assays:
Recombinant human FGFR2 = Recombinant human FGFR2 (Homo sapiens, UniProt P21802); experiment: Transcreener Kinase Assay of FGFR2; type: biochemical
Procedure: Example 24: Transcreener Kinase Assay of FGFR2
• 1. […] Prepare Solution • Test compounds were solved in DMSO and were diluted with assay buffer to 5 folds of final concentration keeping the DMSO concentration at 5%. Further dilution are needed to make final concentrations are at 1, 0.33, 0.11, 0.037, 0.012, 0.004, 0.0014, 0.0005 μM; (the final concentration of DMSO is 1%). • Enzyme/Substrate stock Preparation: Recombinant human FGFR2 and Poly E4Y are both diluted in assay buffer. The final concentration is 0.3 ng/μL for FGFR2 and 62.5 ng/μL for Poly E4Y. The mixture is being kept in ice before use; • Prepare ATP Diluents, 10 mM ATP is diluted in assay buffer, the final concentration is 25 μM; • Prepare ADP Diluents: diluted ADP (500 μM) in assay buffer, the final concentration is 25 μM; • Prepare ATP standard curve stock as following:
• 3. Enzymatic Reaction • In a 96-well plate, add 5 μL of deluted solution of test compound or control solution. (positive control: 5 μL of 5% DMSO; negative control: 5 μL of 500 mM EDTA) into desired wells respectively; • Add 10 μL of Enzyme/Substrate stock into each well; • Add 10 μL of ATP Diluents to initiate the enzyme reaction and vortex the plate immediately on a plate shaker; • For the wells to make standard curve, add 5 μL of 5% DMSO, 10 μL of assay buffer and 10 μL of ATP standard curve stock. • Incubate the plate for 45 min at 28° C. on a plate shaker in a low speed. • 4. Stoping Reaction and Detecting ADP • Detection Mix Preparation: The mixture is made by dilution with MilliQ water; as following: ADP Alexa633 tracer (1:100), ADP antibody (1:158), and stop & detect buffer (1:10); • Tracer Only control Preparation: The mixture is made by dilution with MilliQ water; as following: ADP Alexa633 tracer (1:100), and stop & detect buffer (1: 10) • No Tracer control Preparation: stop & detect buffer is diluted with MilliQ water; by 10 fold. • Add 25 μL of detection mix, Tracer Only control and No Tracer control into corresponding wells, respectively; • Incubate at 28° C. for 1 h, on a plate shaker in a low speed; • Measure florescence polarization (mP) on TECAN F500. Excitation wavelength: 610 nm, Emission wavelength: 670 nm. • 5. Data Analysis
(§1) [formula] Note: • [ADP] in Compound well represents the ADP concentration in test compound well. • [ADP] in Positive control well represents the ADP concentration in 5% DMSO well • Conversion of mP value to ADP concentration is calculated based on the formula which determined by standard curve. And mP value is measured by following the instruction provided by BellBrook Labs. (www.bellbrooklabs.com). • 6. IC50: determined with add-in software for Microsoft Excel, XLfit™ (version 2.0) from ID Business Solutions (Guildford, UK).

FGFR3 kinase = FGFR3 kinase (Homo sapiens, UniProt P22607); experiment: Z-Lyte Kinase Assay of FGFR3; type: biochemical
Sequence of FGFR3 kinase (P22607 23-806): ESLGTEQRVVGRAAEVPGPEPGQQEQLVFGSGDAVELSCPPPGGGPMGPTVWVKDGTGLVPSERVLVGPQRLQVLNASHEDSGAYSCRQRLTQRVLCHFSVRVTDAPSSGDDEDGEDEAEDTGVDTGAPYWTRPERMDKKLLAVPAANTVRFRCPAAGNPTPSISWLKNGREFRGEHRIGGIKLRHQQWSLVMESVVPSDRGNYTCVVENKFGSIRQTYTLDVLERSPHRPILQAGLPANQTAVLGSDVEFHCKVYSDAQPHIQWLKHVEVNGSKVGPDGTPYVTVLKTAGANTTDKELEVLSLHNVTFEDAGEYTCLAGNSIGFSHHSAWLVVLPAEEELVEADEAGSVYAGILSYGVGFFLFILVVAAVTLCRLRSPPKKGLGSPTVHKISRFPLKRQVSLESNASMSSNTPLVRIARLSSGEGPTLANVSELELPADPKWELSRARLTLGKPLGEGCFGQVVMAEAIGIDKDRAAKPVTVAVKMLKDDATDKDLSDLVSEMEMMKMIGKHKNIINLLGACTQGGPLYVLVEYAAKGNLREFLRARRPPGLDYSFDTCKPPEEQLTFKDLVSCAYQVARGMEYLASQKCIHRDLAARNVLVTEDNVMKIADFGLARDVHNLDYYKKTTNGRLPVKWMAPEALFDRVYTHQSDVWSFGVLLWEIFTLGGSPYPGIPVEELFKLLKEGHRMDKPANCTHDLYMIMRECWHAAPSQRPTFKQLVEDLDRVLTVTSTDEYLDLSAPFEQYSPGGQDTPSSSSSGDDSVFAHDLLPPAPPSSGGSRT
Procedure: Example 25: Z-Lyte Kinase Assay of FGFR3
• 1. Materials and Reagents:
• 2. Reaction Steps: Plate Map
• 3. […] The final concentrations are 1, 0.33, 0.11, 0.037, 0.012, 0.004, 0.0014, 0.00046 μM, and the final concentration of DMSO is 2%. • 3) Kinase/Peptide Mixture (P/K solution): Prepare Kinase/Peptide Mixture by diluting the kinase to 0.7 μg/ml and the Z-LYTE™ Tyr 4 peptide to 4 μM in 1.33× Kinase Buffer. Mix gently by pipetting. • 4) Phospho-peptide Solution (PP solution): Add 0.4 μl of Z-LYTE™ Tyr 4 Phospho-peptide to 99.6 μl of 1.33× Kinase Buffer. • 5) ATP Solution: Prepare ATP Solution by diluting the 10 mM of ATP in 1.33× Kinase Buffer to 300 uM. • 6) Development Solution: Dilute Development Reagent B with Development Buffer as 1:128. • 4. […] Shake the plate for 30 Sec and centrifuge (1500 rpm, 1 min). • Seal the plate to protect from the light and incubate the plate for 1 hour at RT (25-30° C.). • 2) Development reaction • Add 5 μl of the Development solution to all wells. • Shake the plate for 30 Sec and centrifuge (1500 rpm, 1 min). • Seal the plate to protect from the light and incubate the plate for 1 hour at RT (25-30° C.). • 3) Stop and Read • Add 5 μl of the Stop reagent to all wells. • Shake the plate for 30 Sec and centrifuge (1500 rpm, 1 min). • Measure the value of Coumarin (Ex400 nm, Em445 nm) and fluorescein (Ex400 nm, Em520 nm), respectively. • 5. Data Analysis Emission Ratio(ER)=Coumarin Emission (445 nm)/Fluorescein Emission (520 nm) % Phosphorylation=1−[ER×C3520nm-C3445nm]/[(C1445nm-C3445nm)+ER×(C3520nm−C1520nm)] Inhibition rate (IR)=1−% Photest Cpd/% PhoC2 • 6. IC50 Value: determined with add-in software for Microsoft Excel, XLfit™ (version 2.0) from ID Business Solutions (Guildford, UK)

Recombinant human FGFR1 = Recombinant human FGFR1 (Homo sapiens, UniProt P11362); experiment: Transcreener Kinase Assay of FGFR1; type: biochemical
Sequence of Recombinant human FGFR1 (P11362 22-822): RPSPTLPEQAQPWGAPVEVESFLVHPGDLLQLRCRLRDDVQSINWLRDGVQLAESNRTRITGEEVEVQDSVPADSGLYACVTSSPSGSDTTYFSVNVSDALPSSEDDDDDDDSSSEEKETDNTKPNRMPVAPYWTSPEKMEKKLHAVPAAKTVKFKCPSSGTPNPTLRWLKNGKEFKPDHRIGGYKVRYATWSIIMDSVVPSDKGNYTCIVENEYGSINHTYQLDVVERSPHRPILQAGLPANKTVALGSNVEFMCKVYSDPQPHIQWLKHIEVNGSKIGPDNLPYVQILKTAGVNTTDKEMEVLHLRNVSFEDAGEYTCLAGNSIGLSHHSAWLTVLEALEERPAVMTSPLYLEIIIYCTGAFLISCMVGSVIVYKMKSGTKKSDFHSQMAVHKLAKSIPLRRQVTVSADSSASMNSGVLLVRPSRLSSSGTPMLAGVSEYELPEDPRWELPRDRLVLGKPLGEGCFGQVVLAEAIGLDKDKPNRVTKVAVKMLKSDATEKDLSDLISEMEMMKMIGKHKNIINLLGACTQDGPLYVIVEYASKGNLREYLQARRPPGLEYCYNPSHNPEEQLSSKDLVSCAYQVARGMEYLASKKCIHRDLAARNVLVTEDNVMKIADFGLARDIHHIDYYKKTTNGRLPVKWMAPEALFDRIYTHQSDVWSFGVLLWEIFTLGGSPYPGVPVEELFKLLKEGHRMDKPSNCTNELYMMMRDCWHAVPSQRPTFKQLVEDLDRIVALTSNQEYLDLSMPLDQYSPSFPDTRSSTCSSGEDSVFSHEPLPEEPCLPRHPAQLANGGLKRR
Procedure: • 1. […] Prepare Solution • Test compounds were solved in DMSO and were diluted with assay buffer to 5 folds of final concentration keeping the DMSO concentration at 5%. Further dilution are needed to make final concentrations are at 1, 0.33, 0.11, 0.037, 0.012, 0.004, 0.0014, 0.0005 μM; (the final concentration of DMSO is 1%). • Enzyme/Substrate stock Preparation: Recombinant human FGFR1 and Poly E4Y are both diluted in assay buffer.
• 3. Enzymatic Reaction • In a 96-well plate, add 5 μL of diluted solution of test compound or control solution. (positive control: 5 μL of 5% DMSO; negative control: 5 μL of 500 mM EDTA) into desired wells respectively; • Add 10 μL of Enzyme/Substrate stock into each well; • Add 10 μL of ATP Diluents to initiate the enzyme reaction and vortex the plate immediately on a plate shaker; • For the wells to make standard curve, add 5 μL of 5% DMSO, 10 μL of assay buffer and 10 μL of ATP standard curve stock. • Incubate the plate for 45 min at 28° C. on a plate shaker in a low speed. • 4. […] Excitation wavelength: 610 nm, Emission wavelength: 670 nm. • 5. Data Analysis
as §1

SNU-16 = experiment: Cellular Proliferation Assay (Cell Counting Kit-8), SNU-16; type: cell-based; conditions: Homo sapiens; SNU-16 cells, 72 hours
Procedure: (§2) Example 26: Cellular Proliferation Assay
(§3) • 1. Cell Line • KG-1 (ATCC Accession No. CCL-246), • SNU-16 (ATCC Accession No. CRL-5974), • RT-112 (ECACC Accession No. 85061106) • 2. Assay Protocol • FGFR related cancer cell proliferation is measured in 96-well plates using Cell Counting Kit-8 (Dojindo CK04-13). • Seed 30000 cells/well of KG1, 5000 cells/well of SNU16, and 1000 cells/well of RT112 in a volume of 100 μL/well in growth media. • After 24 hours, dilute the test compound to 10, 3.3, 1.1, 0.37, 0.12, 0.04, 0.013, 0.004 μM, keeping the DMSO concentration at 5%. • Add 10 μL of 8-point compound series to the wells of culturing cells. • Incubate at 37° C. and 5% CO2 for 72 hours • Add 10 μL/well of CCkit8 and incubate at 37° C. and 5% CO2 for an hour • Detect the optical density of each well at 450 nm on Labsystems Multiskan K3. • 3. Data Analysis
(§4) [formula] Note: • ODcompound well represents the optical density of cells treated with compound. • ODcell well represents the optical density of cells without compounds treatment.(only 0.5% DMSO) • ODcontrol well represents the optical density of culture media background • IC50: determined with add-in software for Microsoft Excel, XLfit™ (version 2.0) from ID Business Solutions (Guildford, UK).

KG-1 = experiment: Cellular Proliferation Assay (Cell Counting Kit-8), KG-1; type: cell-based; conditions: Homo sapiens; KG-1 cells, 72 hours; read-out: KG1 IC50
Procedure: as §2, §3, §4

RT-112 = experiment: Cellular Proliferation Assay (Cell Counting Kit-8), RT-112; type: cell-based; conditions: Homo sapiens; RT-112 cells, 72 hours
Procedure: as §2, §3, §4

Sequence of Recombinant human FGFR2 (P21802 22-821): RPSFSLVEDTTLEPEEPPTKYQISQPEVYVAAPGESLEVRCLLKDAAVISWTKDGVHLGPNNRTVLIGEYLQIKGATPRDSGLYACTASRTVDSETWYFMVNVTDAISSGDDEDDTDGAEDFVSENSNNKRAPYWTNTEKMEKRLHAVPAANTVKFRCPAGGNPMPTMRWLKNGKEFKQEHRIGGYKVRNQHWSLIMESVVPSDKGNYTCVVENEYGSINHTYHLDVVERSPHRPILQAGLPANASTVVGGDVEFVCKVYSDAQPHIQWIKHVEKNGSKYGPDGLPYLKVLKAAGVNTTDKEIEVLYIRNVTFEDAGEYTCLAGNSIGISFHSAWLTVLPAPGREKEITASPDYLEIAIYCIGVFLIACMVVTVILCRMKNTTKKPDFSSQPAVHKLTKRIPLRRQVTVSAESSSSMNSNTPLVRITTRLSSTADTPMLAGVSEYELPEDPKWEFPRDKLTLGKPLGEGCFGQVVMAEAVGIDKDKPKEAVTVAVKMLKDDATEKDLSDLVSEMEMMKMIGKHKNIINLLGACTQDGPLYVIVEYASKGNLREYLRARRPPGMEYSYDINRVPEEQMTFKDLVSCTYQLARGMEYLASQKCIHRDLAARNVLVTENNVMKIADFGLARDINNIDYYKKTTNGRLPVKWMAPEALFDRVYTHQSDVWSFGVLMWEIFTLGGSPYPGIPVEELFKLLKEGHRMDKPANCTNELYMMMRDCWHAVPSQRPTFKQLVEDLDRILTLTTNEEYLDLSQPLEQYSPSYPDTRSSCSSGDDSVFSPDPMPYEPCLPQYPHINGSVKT

Row | SMILES | IC50 (Recombinant human FGFR2; read-out: FGFR2 (FP) IC50) [nM] | IC50 (FGFR3 kinase) [nM] | IC50 (Recombinant human FGFR1; read-out: FGFR1 (FP) IC50) [nM] | IC50 (SNU-16) [nM] | IC50 (Recombinant human FGFR2; FP) [nM] | IC50 (FGFR3 kinase; Z-lyte) [nM] | IC50 (Recombinant human FGFR1; FP) [nM] | IC50 (KG-1) [nM] | IC50 (RT-112) [nM]
1 | CCn1cc(Nc2ncc(/C=C/c3cc(C(=O)NC)cc(OC)c3Br)cn2)cn1 [Compound 3] | 28 | 188 | 28 | – | – | – | – | – | –
2 | CNC(=O)c1cc(CCc2cnc(Nc3cccc(N4C[C@@H](C)N[C@@H](C)C4)c3)nc2)cc(OC)c1 [Compound 12] | – | – | – | 266 | – | – | – | – | –
3 | CCOc1cc(CCc2cnc(Nc3ccc(N4CCN(CC)CC4)cc3)nc2)cc(C(=O)NOC)c1 [Compound 50] | – | – | – | 581 | – | – | – | 387 | –
4 | CCN1CCN(c2ccc(Nc3ccc(CCc4cc(OC)cc(C(=O)NOC)c4)cn3)cc2)CC1 [Compound 73] | 8 | 25 | 9 | 65 | – | – | – | 70 | 493
5 | CNC(=O)c1cc(CCc2cnc(Nc3ccc(N)cc3)nc2)c(Cl)c(OC)c1 [Compound 80] | 11 | 13 | 10 | 18 | – | – | – | 13 | 44
6 | CNC(=O)c1cc(CCc2cnc(Nc3ccc(NC[C@@H](C)N)cc3)nc2)c(Cl)c(OC)c1 [Compound 92] | 8 | 10 | 8 | 32 | – | – | – | 90 | 87
7 | CNC(=O)c1cc(COc2cnc(Nc3ccc(C4CCNCC4)nc3)nc2)c(F)c(OC)c1 [Compound 236] | 14 | 9 | 28 | – | – | – | – | – | –
8 | CNC(=O)c1cc(COc2cnc(Nc3ccc(N4C[C@@H](C)N[C@@H](C)C4)nc3)nc2)c(F)c(OC)c1 [Compound 257] | – | – | – | – | – | – | – | 103 | –
9 | CNC(=O)c1cc(COc2cnc(Nc3ccc(C4CCNCC4)c(OC)c3)nc2)c(F)c(OC)c1 [Compound 258] | 15 | 17 | 28 | – | – | – | – | – | –
10 | CNC(=O)c1cc(COc2cnc(Nc3ccc(N4C[C@@H]5CCN(C)[C@@H]5C4)c(OC)c3)nc2)c(F)c(OC)c1 [Compound 293] | – | – | – | – | 8 | 11 | 18 | – | –
11 | CNC(=O)c1cc(COc2cnc(Nc3ccc(N4CCN(C5CC5)CC4)c(OC)c3)nc2)c(F)c(OC)c1 [Compound 294] | – | – | – | – | 6 | 5 | 14 | – | –
12 | CNC(=O)c1cc(COc2cnc(Nc3ccc(N4CCN(C5CCCC5)CC4)c(OC)c3)nc2)c(F)c(OC)c1 [Compound 302] | – | – | – | – | 7 | 9 | 12 | – | –

Now from value to molecule, other results behind:

Row | IC50 (Recombinant human FGFR2; read-out: FGFR2 (FP) IC50) [nM] | IC50 (FGFR3 kinase) [nM] | IC50 (Recombinant human FGFR1; read-out: FGFR1 (FP) IC50) [nM] | IC50 (SNU-16) [nM] | IC50 (Recombinant human FGFR2; FP) [nM] | IC50 (FGFR3 kinase; Z-lyte) [nM] | IC50 (Recombinant human FGFR1; FP) [nM] | SMILES | IC50 (KG-1) [nM] | IC50 (RT-112) [nM]
13 | 10 | – | – | – | – | – | – | CNC(=O)c1cc(CCc2cnc(Nc3cnn(CC(F)(F)F)c3)nc2)c(F)c(OC)c1 [Compound 35] | – | –
14 | 13 | 26 | 17 | 59 | – | – | – | CNC(=O)c1cc(CCc2cnc(Nc3ccc(O)cc3)nc2)c(Cl)c(OC)c1 [Compound 81] | 26 | 133
15 | 5 | 3 | 12 | 24 | – | – | – | CNC(=O)c1cc(CCc2cnc(Nc3cnn(C[C@H](C)O)c3)nc2)c(Cl)c(OC)c1 [Compound 88] | 30 | 50
16 | 7 | – | 10 | – | – | – | – | CNC(=O)c1cc(CCc2cnc(Nc3cnn([C@@H]4CCOC4)c3)nc2)c(F)c(OC)c1 [Compound 136] | 29 | 166
17 | 5 | 13 | 9 | 18 | – | – | – | CNC(=O)c1cc(CCc2cnc(Nc3cnn([C@H]4CCOC4)c3)nc2)c(F)c(OC)c1 [Compound 137] | – | –
18 | 5 | 6 | 7 | – | – | – | – | CCN1CCN(c2ccc(Nc3ncc(CCc4cc(C(=O)NC)cc(OC)c4F)cn3)cc2OC)CC1 [Compound 157] | – | –
19 | 87 | 132 | 99 | – | – | – | – | CCN1CC[C@H](n2cc(Nc3ncc(CCc4cc(C(=O)NC)cc(OC)c4F)cn3)cn2)C1 [Compound 191] | – | –
20 | 10 | 8 | 14 | – | – | – | – | CNC(=O)c1cc(COc2cnc(Nc3cnn(C[C@@H](O)CO)c3)nc2)c(F)c(OC)c1 [Compound 219] | – | –
21 | 10 | 8 | 17 | – | – | – | – | CNC(=O)c1cc(COc2cnc(Nc3cnn(C[C@H](O)CO)c3)nc2)c(F)c(OC)c1 [Compound 220] | – | –
